The record followed here is ChEMBL document CHEMBL2331430, “Absolute configuration and conformational analysis of brevipolides, bioactive 5,6-dihydro-α-pyrones from Hyptis brevipes” (J Nat Prod, 2013).

In brackets after ≈: the same amount, converted by molar mass.

One assay concerns KB. As to the kind of experiment: Cytotoxicity against human KB cells after 72 hrs by SRB assay.
For another assay, the system named is PC-3. The assay can be described thus: Cytotoxicity against human PC3 cells after 72 hrs by SRB assay. The conditions noted are these: PC-3, 72 h, read-out: ED50 (the source's name).
The test system of the next assay is MCF7. The assay can be described thus: Cytotoxicity against human MCF7 cells after 72 hrs by SRB assay. The conditions noted are these: MCF7, 72 h, read-out: ED50 (the source's name).
Another assay relates to HeLa. As to the kind of experiment: Cytotoxicity against human HeLa cells after 72 hrs by SRB assay. Conditions: read-out: ED50 (the source's name).
A further assay relates to HCT-15. As to the kind of experiment: Cytotoxicity against human HCT15 cells after 72 hrs by SRB assay. Conditions: HCT-15, 72 h, read-out: ED50 (the source's name).
Assay [1] relates to Hep-2 (human laryngeal carcinoma). The assay can be described thus: Cytotoxicity against human Hep-2 cells after 72 hrs by SRB assay. The conditions noted are these: Hep-2, 72 h, read-out: ED50 (the source's name).

In the assay with KB, `COc1ccc(/C=C\C(=O)O[C@@H](C)C(=O)[C@H]2C[C@@H]2[C@H](O)[C@H]2CC=CC(=O)O2)cc1` [BREVIPOLIDE I] yielded a concentration for half-maximal inhibition (IC50) of 1.9 µg/mL (≈ 4.74 µM). Also, the EC50 (in the assay on PC-3; in the assay with MCF7; in the assay on HeLa; in the assay with HCT-15; in assay [1]) was 0.3 µg/mL (≈ 0.749 µM) each time.
For the compound `C[C@H](OC(=O)/C=C/c1ccc(O)cc1)C(=O)[C@H]1C[C@@H]1[C@H](O)[C@H]1CC=CC(=O)O1` [BREVIPOLIDE G], the IC50 in the assay with KB came to 0.3 µg/mL (≈ 0.776 µM). Besides, the EC50 (with PC-3; in the assay on MCF7; with HeLa; in the assay with HCT-15; in assay [1]) was 0.3 µg/mL (≈ 0.776 µM) in each case.
Take `COc1ccc(/C=C/C(=O)O[C@@H](C)C(=O)[C@H]2C[C@@H]2[C@H](O)[C@H]2CC=CC(=O)O2)cc1O` [BREVIPOLIDE J]: in the assay with KB, the IC50 amounted to 1.2 µg/mL (≈ 2.88 µM). Further, the EC50 (with PC-3; in the assay with MCF7; in the assay on HeLa; in the assay with HCT-15; in assay [1]) was 0.3 µg/mL (≈ 0.72 µM) throughout.
In the assay on KB, `COc1ccc(/C=C/C(=O)O[C@@H](C)C(=O)[C@H]2C[C@@H]2[C@H](O)[C@H]2CC=CC(=O)O2)cc1` [BREVIPOLIDE H] yielded an IC50 of 2 µg/mL (≈ 4.99 µM). The EC50 (in the assay with PC-3; with MCF7; in the assay on HeLa; in the assay on HCT-15; in assay [1]) was 0.3 µg/mL (≈ 0.749 µM) throughout.
